# Results reported in patent publication US9714244B2, “Substituted pyrido[4,3-d]pyrimidines as Wee-1 inhibitors” (ALMAC DISCOVERY LIMITED, priority 2013, dated 2017).
# What was measured:
# [1] = CLint estimates using human liver microsomes; format: in vitro ADME; conditions: pH 7.4, read-out: HLM activity (HLM CLint)
# Experimental: Method for the Determination of CLint Estimates Using Human Liver Microsomes
# Test compounds (final concentration=1 μM; final DMSO concentration=0.1%) were incubated in 0.1M phosphate buffer pH 7.4 with human liver microsomes (0.5 mg of protein/mL) at 37° C. Reactions were started by addition of NADPH in 0.1M phosphate buffer pH 7.4 (final concentration 1 mM). 40 μL aliquots were removed at 2, 5, 10, 15, 20, 30, 40 and 50 min. Reactions were quenched in 80 μL of ice-cold methanol. Samples were subsequently frozen overnight then centrifuged at 3500 rpm for 20 min at 4° C. The supernatants were removed and transferred into analytical plates and analysed by LC/MS/MS.
# All samples were analysed on a Waters Acquity I-Class coupled to a Waters Xevo TQD mass spectrometer. A Waters BEH C18 2.1×50 mm 1.7 μm column was used and mobile phases were water and methanol containing 0.1% formic acid as modifier. Analysis was by multiple reaction monitoring and conditions were optimised for each test compound.
# From a plot of ln peak area against time, the gradient of the line is determined. Subsequently, half-life and intrinsic clearance are calculated using the following equations.
# Wee-1 kinase = Wee-1 kinase (Homo sapiens (Human), UniProt P30291); assay: Measurement of Wee-1 kinase activity (ADP-Glo); format: biochemical; conditions: read-out: Wee-1 IC50 activity
# Experimental: Method 1: Measurement of Wee-1 kinase activity
# In the measurement of Wee-1 activity, a commercial peptide Poly(Lys Tyr(4:1)) hydrobromide was purchased from Sigma Aldrich and used as the substrate. Activated Wee-1 kinase was purchased from Invitrogen (PV3817) and an ADP-Glo luminescent kit was purchased from Promega.
# All reactions took place in […] volumes in reaction buffer containing 40 mM Tris-HCl and 20 mM magnesium chloride, supplemented with 0.1 mg/mL bovine serum albumin and 2 mM DTT. Compounds were serially diluted in buffer and 5 μL of each concentration pipetted into a white 384 well plate (Sigma Aldrich M6186). A 5 μL aliquot of the Wee-1 enzyme was added to each well and the plate centrifuged for 1 min to ensure mixing of the enzyme and inhibitor.
# The plate was incubated at room temperature for 30 minutes before the addition of 2.0 μg/mL of substrate and 30 μM ATP in a 5 μL aliquot. The plate was centrifuged for one minute and incubated for 1 h at RT.
# 15 μL of ADP-Glo stop reagent was added to each well to quench the reaction and deplete unconverted ATP. The plate was incubated for a further 40 min in the dark at RT.
# 30 μL of ADP-Glo kinase detection reagent was added to each well, converting ADP to ATP, catalysing the generation of luciferin by luciferase. The plate was shaken for 1 min, and incubated in the dark for an additional hour.
# Luminescence from each well was detected using the Biotek Synergy4 HD plate reader and the percentage inhibition of kinase activity calculated for each inhibitor tested. Positive (kinase only) and negative (no kinase) controls were added to each plate to ensure specific interaction of kinase and inhibitor. The IC50 concentration for each inhibitor was calculated by plotting the percentage kinase inhibition against concentration of inhibitor and the curve generated by non-linear regression fitting.
# [2] = system: phospho-cdc2 (Tyr15) in HT-29 cells; assay: Effect on phosphorylation of cdc2 at Tyr15 in HT-29 cells (PathScan ELISA); format: cell-based; conditions: Homo sapiens, HT-29, 8 h; HT29 cells, eight hours incubation; read-out: HT29 pCDC2 activity
# Experimental: Method 2: Determining the effect of compounds on the phosphorylation of cdc2 at Tyr15
# The colorectal cancer cell lines HT-29 and HCT-116 were purchased from the ATCC and routinely maintained in McCoy's Medium (Invitrogen) supplemented with 10% Foetal Calf Serum.
# The cells were trypsinised from their growing vessel and counted, 100 μL of cell suspension containing 6000 cells was pipetted into black 96 well Co-star plates and incubated overnight to allow adherence to the surface at a temperature of 37° C. and an atmosphere of 5% CO2. Test compounds were formulated in DMSO and diluted in foetal calf serum supplemented medium. Incubating medium was removed by aspiration and diluted drug supplemented medium added to each well.
# The plate was returned to the incubator for an additional eight hours at 37° C. and an atmosphere of 5% CO2. Post incubation, the drug supplemented medium was aspirated from each well and the cells were washed once in ice-cold phosphate buffered saline (PBS). 100 μL of cell lysis buffer (Cell Signalling Technologies #9803) containing 20 mM Tris, 150 mM NaCl, 1 mM EDTA, 1 mM EGTA, 1% Triton-X100, 2.5 mM sodium pyrophosphate, 1 mM glycerophosphate, 1 mM Na3VO4 and 1 μg/mL leupeptin was added to each well of the 96 well plate and incubated at 4° C. for 30 min. The samples on the plate were snap frozen at −80° C. until required.
# Immediately before the continuation of the assay, the sample plate was thawed and centrifuged at 4° C. for 10 min and the supernatant transferred to secondary tubes or 96 well plate.
# Cell supernatant was mixed in a ratio of 1:1 with sample dilutent buffer and vortexed for one minute. 100 μL of diluted sample was pipetted into pre-coated plates containing a rabbit polyclonal antibody for phospho-cdc2 (Tyr15) (Cell Signalling Technologies PathScan kit #7176). The plate was sealed and incubated overnight at 4° C.
# The plate seal was removed and the well contents aspirated, followed by 3×5 min washes with 200 μL of diluted wash buffer. Between each wash the plate was tapped firmly onto blotting paper to ensure the removal of all kit solution. 100 μL of kit detection antibody was added to each well and the plate re-sealed and incubated at 37° C. for 1 h. Post incubation the plate was washed and processed in a similar manner to that previously described.
# 100 μL of horseradish peroxidise-linked secondary antibody was added to each test well, the plate sealed and incubated for thirty minutes at 37° C. Post incubation, the plate was washed as previously stated, followed by the addition of 100 μL of 3,3′,5,5′ tetramethylbenzidine (TMB reagent). The plate was sealed and incubated at RT for 30 min.
# 100 μL of stop solution was added to each well and the underside of the plate wiped with a lint-free tissue, prior to spectrophotometric determination. Absorbance from each well was read at 450 nm within 30 min of the addition of the stop solution.
# The percentage of phospho-cdc2 was calculated compared to DMSO control and plotted versus the concentration of inhibitor using GraphPad Prism. Data was fitted using non-linear regression analysis and IC50 values generated.
# Chain of Wee-1 kinase (P30291 whole entry): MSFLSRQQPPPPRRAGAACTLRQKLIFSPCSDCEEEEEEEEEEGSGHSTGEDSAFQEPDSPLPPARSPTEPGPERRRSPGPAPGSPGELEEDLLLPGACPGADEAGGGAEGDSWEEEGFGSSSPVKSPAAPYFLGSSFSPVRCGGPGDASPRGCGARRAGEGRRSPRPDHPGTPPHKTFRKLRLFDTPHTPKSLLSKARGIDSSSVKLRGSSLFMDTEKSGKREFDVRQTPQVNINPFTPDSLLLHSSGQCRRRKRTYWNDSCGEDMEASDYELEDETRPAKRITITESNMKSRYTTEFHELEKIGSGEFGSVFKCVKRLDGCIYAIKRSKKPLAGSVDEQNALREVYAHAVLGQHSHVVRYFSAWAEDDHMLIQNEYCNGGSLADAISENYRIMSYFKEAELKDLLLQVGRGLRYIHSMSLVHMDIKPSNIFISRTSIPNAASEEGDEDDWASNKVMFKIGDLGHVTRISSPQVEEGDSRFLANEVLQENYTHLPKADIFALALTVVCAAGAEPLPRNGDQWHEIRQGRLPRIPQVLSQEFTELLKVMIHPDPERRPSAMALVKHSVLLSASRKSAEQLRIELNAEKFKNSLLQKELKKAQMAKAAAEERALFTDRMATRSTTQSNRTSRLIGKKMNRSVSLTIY
structure (smiles),measurement,setting,value
"O=c1c2cnc(Nc3ccc(N4CCNCC4)cc3)nc2ccn1-c1cccnc1Cl [Example 3, 6-(2-Chloropyridin-3-yl)-2-((4-(piperazin-1-yl)phenyl)amino)pyrido[4,3-d]pyrimidin-5(6H)-one]",microsomal CLint at 1 μM,[1],≤ 20 µL/min/mg
same,IC50,Wee-1 kinase,> 200 nM
"CCN(CC)CCOc1ccc(Nc2ncc3c(=O)n(-c4c(Cl)cccc4Cl)ccc3n2)cc1 [Example 4, 6-(2,6-Dichlorophenyl)-2-((4-(2-(diethylamino)ethoxy)phenyl)amino)pyrido[4,3-d]pyrimidin-5(6H)-one]",microsomal CLint at 1 μM,[1],> 20 µL/min/mg
same,IC50,[2],100 to 1000 nM
"CC(=O)N1CCN(c2ccc(Nc3ncc4c(=O)n(-c5c(Cl)cccc5Cl)ccc4n3)cc2)CC1 [Example 5, 2-((4-(4-Acetylpiperazin-1-yl)phenyl)amino)-6-(2,6-dichlorophenyl)pyrido[4,3-d]pyrimidin-5(6H)-one]",microsomal CLint at 1 μM,[1],≤ 20 µL/min/mg
same,IC50,Wee-1 kinase,10 to 200 nM
same,IC50,[2],100 to 1000 nM
"O=c1c2cnc(Nc3ccc(N4CCS(=O)(=O)CC4)cc3)nc2ccn1-c1c(Cl)cccc1Cl [Example 6, 6-(2,6-Dichlorophenyl)-2-((4-(1,1-dioxidothiomorpholino)phenyl)amino)pyrido[4,3-d]pyrimidin-5(6H)-one]",microsomal CLint at 1 μM,[1],> 20 µL/min/mg
same,IC50,[2],100 to 1000 nM
"O=c1c2cnc(Nc3ccc(N4CCNCC4)cc3)nc2c(Br)cn1-c1c(Cl)cccc1Cl [Example 9, 8-Bromo-6-(2,6-dichlorophenyl)-2-((4-(piperazin-1-yl)phenyl)amino)pyrido[4,3-d]pyrimidin-5(6H)-one]",microsomal CLint at 1 μM,[1],≤ 20 µL/min/mg
same,IC50,Wee-1 kinase,< 10 nM
same,IC50,[2],100 to 1000 nM
"Cc1cc(Nc2ncc3c(=O)n(-c4c(Cl)cccc4Cl)cc(C#CCO)c3n2)ccc1N1CCNCC1 [Example 14, 6-(2,6-Dichlorophenyl)-8-(3-hydroxyprop-1-yn-1-yl)-2-((3-methyl-4-(piperazin-1-yl)phenyl)amino)pyrido[4,3-d]pyrimidin-5(6H)-one]",microsomal CLint at 1 μM,[1],≤ 20 µL/min/mg
same,IC50,Wee-1 kinase,< 10 nM
same,IC50,[2],≤ 100 nM
"CN1CCN(c2ccc(Nc3ncc4c(=O)n(-c5c(Cl)cccc5Cl)ccc4n3)cc2)CC1 [Example 15, 6-(2,6-Dichlorophenyl)-2-((4-(4-methylpiperazin-1-yl)phenyl)amino)pyrido[4,3-d]pyrimidin-5(6H)-one]",microsomal CLint at 1 μM,[1],> 20 µL/min/mg
same,IC50,[2],100 to 1000 nM
"O=c1c2cnc(Nc3ccc(N4CCN(CCO)CC4)cc3)nc2ccn1-c1c(Cl)cccc1Cl [Example 21, 6-(2,6-Dichlorophenyl)-2-((4-(4-(2-hydroxyethyl)piperazin-1-yl)phenyl)amino)pyrido[4,3-d]pyrimidin-5(6H)-one]",microsomal CLint at 1 μM,[1],> 20 µL/min/mg
same,IC50,Wee-1 kinase,< 10 nM
same,IC50,[2],≤ 100 nM
"NCC#Cc1cn(-c2c(Cl)cccc2Cl)c(=O)c2cnc(Nc3ccc(N4CCOCC4)cc3)nc12 [Example 22, 8-(3-Aminoprop-1-yn-1-yl)-6-(2,6-dichlorophenyl)-2-((4-morpholinophenyl)amino)pyrido[4,3-d]pyrimidin-5(6H)-one]",microsomal CLint at 1 μM,[1],> 20 µL/min/mg
same,IC50,Wee-1 kinase,< 10 nM
same,IC50,[2],≤ 100 nM
"O=c1c2cnc(Nc3ccc(N4CCNCC4)cc3)nc2c(-c2cccnc2)cn1-c1c(Cl)cccc1Cl [Example 23, 6-(2,6-Dichlorophenyl)-2-((4-(piperazin-1-yl)phenyl)amino)-8-(pyridin-3-yl)pyrido[4,3-d]pyrimidin-5(6H)-one]",microsomal CLint at 1 μM,[1],> 20 µL/min/mg
same,IC50,Wee-1 kinase,< 10 nM
same,IC50,[2],≤ 100 nM
"Cc1cc(Nc2ncc3c(=O)n(-c4ccccc4Cl)ccc3n2)ccc1N1CCNCC1 [Example 24, 6-(2-Chlorophenyl)-2-((3-methyl-4-(piperazin-1-yl)phenyl)amino)pyrido[4,3-d]pyrimidin-5(6H)-one]",microsomal CLint at 1 μM,[1],≤ 20 µL/min/mg
same,IC50,Wee-1 kinase,< 10 nM
same,IC50,[2],100 to 1000 nM
"NCc1cccc(Nc2ncc3c(=O)n(-c4c(Cl)cccc4Cl)ccc3n2)c1 [Example 25, 2-((3-(Aminomethyl)phenyl)amino)-6-(2,6-dichlorophenyl)pyrido[4,3-d]pyrimidin-5(6H)-one]",microsomal CLint at 1 μM,[1],> 20 µL/min/mg
same,IC50,[2],≥ 1000 nM
"CN1CCN(c2cccc(Nc3ncc4c(=O)n(-c5c(Cl)cccc5Cl)ccc4n3)c2)CC1 [Example 26, 6-(2,6-Dichlorophenyl)-2-((3-(4-methylpiperazin-1-yl)phenyl)amino)pyrido[4,3-d]pyrimidin-5(6H)-one]",microsomal CLint at 1 μM,[1],> 20 µL/min/mg
same,IC50,[2],≥ 1000 nM
"O=c1c2cnc(Nc3ccc(N4CCNCC4)c(Cl)c3)nc2ccn1-c1c(Cl)cccc1Cl [Example 27, 2-((3-Chloro-4-(piperazin-1-yl)phenyl)amino)-6-(2,6-dichlorophenyl)pyrido[4,3-d]pyrimidin-5(6H)-one]",microsomal CLint at 1 μM,[1],≤ 20 µL/min/mg
same,IC50,Wee-1 kinase,< 10 nM
same,IC50,[2],100 to 1000 nM
"CC(=O)Nc1cn(-c2c(Cl)cccc2Cl)c(=O)c2cnc(Nc3ccc(N4CCNCC4)cc3)nc12 [Example 28, N-(6-(2,6-Dichlorophenyl)-5-oxo-2-((4-(piperazin-1-yl)phenyl)amino)-5,6-dihydropyrido[4,3-d]pyrimidin-8-yl)acetamide]",IC50,Wee-1 kinase,> 200 nM
"O=c1c2cnc(Nc3ccc(N4CCNCC4)c(F)c3)nc2ccn1-c1c(Cl)cccc1Cl [Example 29, 6-(2,6-Dichlorophenyl)-2-((3-fluoro-4-(piperazin-1-yl)phenyl)amino)pyrido[4,3-d]pyrimidin-5(6H)-one]",microsomal CLint at 1 μM,[1],≤ 20 µL/min/mg
same,IC50,Wee-1 kinase,< 10 nM
same,IC50,[2],≤ 100 nM
"CN1CCN(c2ccc(Nc3ncc4c(=O)n(-c5c(Cl)cccc5Cl)ccc4n3)cn2)CC1 [Example 31, 6-(2,6-Dichlorophenyl)-2-((6-(4-methylpiperazin-1-yl)pyridin-3-yl)amino)pyrido[4,3-d]pyrimidin-5(6H)-one]",microsomal CLint at 1 μM,[1],> 20 µL/min/mg
same,IC50,[2],100 to 1000 nM
"CN1CCN(C(=O)c2ccc(Nc3ncc4c(=O)n(-c5c(Cl)cccc5Cl)ccc4n3)cc2)CC1 [Example 32, 6-(2,6-Dichlorophenyl)-2-((4-(4-methylpiperazine-1-carbonyl)phenyl)amino)pyrido[4,3-d]pyrimidin-5(6H)-one]",IC50,Wee-1 kinase,10 to 200 nM
same,IC50,[2],100 to 1000 nM
